Data from patent publication US8828401B2, “Cytotoxic peptides and antibody drug conjugates thereof” (Pfizer Inc., priority 2011, dated 2014).
Like-named read-outs stand apart in the source and are kept apart here. Starred links: 1 amine or outer side, 2 acyl side, 3 side chain; linkers in the order of their positions; H or OH if unused. Non-standard residues stand in square brackets, D forms with d. Residues, ends and D or L forms follow the SMILES beside them. *: point of attachment. Dolaproine = CO[C@@H]([C@@H]1CCCN1)[C@@H](C)C(=O)O; X6 = O=C([C@H](N[*:1])[C@@H]1Cc2ccccc21)[*:2]; Dil = CC[C@H](C)[C@H](NC)[C@@H](CC(=O)O)OC; NMeαMePro = CN1CCC[C@@]1(C)C(=O)*; dαMePip = C[C@]1(C(=O)O)CCCCN1; NHPhenethyl = c1ccc(CCN*)cc1; N(CH2CH2)2NH = C1CN(*)CCN1; NMeAib = CNC(C)(C)C(=O)O; NH(propargyl) = C#CCN*; Aib = CC(C)(N)C(=O)O; OtBu = CC(C)(C)O*

Columns and labels:
Assay in all cases: In vitro cell assay, MTS cell viability 96 hours after treatment
Assay type in all cases: cell-based
[1] = system: N87 (gastric cancer); settings: read-out: N87 GMEAN IC50, N87 cells; geometric mean; cytotoxic peptides
How it was run: (§1)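 Cells are exposed to 3-fold dilution series (10 points, duplicate wells) of ADC or free compound lacking antibody. After 96 hours, an MTS assay quantifies viability relative to untreated cells.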

[2] = system: BT474 (breast cancer); settings: geometric mean, cytotoxic peptides, read-out: BT474 GMEAN IC50
How it was run: as §1

[3] = system: MDA-MB-361-DYT2 (breast cancer); settings: read-out: MDA-MB-361-DYT2 GMEAN IC50, MDA-MB-361-DYT2 cells; geometric mean; cytotoxic peptides
How it was run: as §1

[4] = Homo sapiens, BT-474, BT474 cells

Structure (SMILES) | IC50 [1] | IC50 [2, 4] | IC50 [3] | IC50 ([2]; BT474 cells)
CC[C@H](C)[C@@H]([C@@H](CC(=O)N1CCC[C@H]1[C@H](OC)[C@@H](C)C(=O)N[C@@H](Cc1ccccc1)C(=O)O)OC)N(C)C(=O)[C@@H](NC(=O)C(C)(C)NC)C(C)C [#115, N,2-dimethylalanyl-N-{(1S,2R)-4-{(2S)-2-[(1R,2R)-3-{[(1S)-1-carboxy-2-phenylethyl]amino}-1-methoxy-2-methyl-3-oxopropyl]pyrrolidin-1-yl}-2-methoxy-1-[(1S)-1-methylpropyl]-4-oxobutyl}-N-methyl-L-valinamide] (H-[NMeAib]V[Dil][Dolaproine]F-OH) | 50.3 nM | 31.5 nM | 19.9 nM | –
CC[C@H](C)[C@@H]([C@@H](CC(=O)N1CCC[C@H]1[C@H](OC)[C@@H](C)C(=S)N[C@@H](Cc1ccccc1)c1nccs1)OC)N(C)C(=O)[C@@H](NC(=O)C(C)(C)NC)C(C)C [#84, N,2-dimethylalanyl-N-[(3R,4S,5S)-3-methoxy-1-{(2S)-2-[(1R,2R)-1-methoxy-2-methyl-3-{[(1S)-2-phenyl-1-(1,3-thiazol-2-yl)ethyl]amino}-3-thioxopropyl]pyrrolidin-1-yl}-5-methyl-1-oxoheptan-4-yl]-N-methyl-L-valinamide] | 0.426 nM | 0.246 nM | 0.686 nM | –
CC[C@H](C)[C@@H]([C@@H](CC(=O)N1CCC[C@H]1[C@H](OC)[C@@H](C)C(=O)N[C@@H](Cc1ccccc1)c1nccs1)OC)N(C)C(=O)[C@@H](NC(=O)C(C)(C)CNC)C(C)C [#154, N˜2˜-[2,2-dimethyl-3-(methylamino)propanoyl]-N-{(1S,2R)-2-methoxy-4-{(2S)-2-[(1R,2R)-1-methoxy-2-methyl-3-oxo-3-{[(1S)-2-phenyl-1-(1,3-thiazol-2-yl)ethyl]amino}propyl]pyrrolidin-1-yl}-1-[(1S)-1-methylpropyl]-4-oxobutyl}-N-methyl-L-valinamide] | 0.572 nM | 0.193 nM | 0.198 nM | –
CC[C@H](C)[C@@H]([C@@H](CC(=O)N1CCC[C@H]1[C@H](OC)[C@@H](C)C(=S)N[C@@H](Cc1ccccc1)C(=O)O)OC)N(C)C(=O)[C@@H](NC(=O)C(C)(C)NC)C(C)C [#80, N,2-dimethylalanyl-N-[(3R,4S,5S)-1-{(2S)-2-[(1R,2R)-3-{[(1S)-1-carboxy-2-phenylethyl]amino}-1-methoxy-2-methyl-3-thioxopropyl]pyrrolidin-1-yl}-3-methoxy-5-methyl-1-oxoheptan-4-yl]-N-methyl-L-valinamide] | 28.2 nM | 20.3 nM | 32.8 nM | –
CC[C@H](C)[C@@H]([C@@H](CC(=O)N1CCC[C@H]1[C@H](OC)[C@@H](C)C(=O)N[C@@H](Cc1ccccc1)C(=O)OC)OC)N(C)C(=O)[C@@H](NC(=O)[C@@]1(F)CCNC1)C(C)C [#173, methyl N-{(2R,3R)-3-[(2S)-1-{(3R,4S,5S)-4-[(N-{[(3R)-3-fluoropyrrolidin-3-yl]carbonyl}-L-valyl)(methyl)amino]-3-methoxy-5-methylheptanoyl}pyrrolidin-2-yl]-3-methoxy-2-methylpropanoyl}-L-phenylalaninate] | 0.099 nM | – | 0.067 nM | 0.088 nM
CC[C@H](C)[C@@H]([C@@H](CC(=O)N1CCC[C@H]1[C@H](OC)[C@@H](C)C(=O)N[C@H](Cc1ccccc1)C(=O)O)OC)N(C)C(=O)[C@@H](NC(=O)C(C)(C)NC)C(C)C [#244] (H-[NMeAib]V[Dil][Dolaproine][dF]-OH) | ≥ 100 nM | 73.1 nM | ≥ 100 nM | –
CC[C@H](C)[C@@H]([C@@H](CC(=O)N1CCC[C@H]1[C@H](OC)[C@@H](C)C(=S)N[C@@H](Cc1ccccc1)C(=O)O)OC)N(C)C(=O)[C@@H](NC(=O)C(C)(C)N)C(C)C [#44, 2-methylalanyl-N-[(3R,4S,5S)-1-{(2S)-2-[(1R,2R)-3-{[(1S)-1-carboxy-2-phenylethyl]amino}-1-methoxy-2-methyl-3-thioxopropyl]pyrrolidin-1-yl}-3-methoxy-5-methyl-1-oxoheptan-4-yl]-N-methyl-L-valinamide] | 14.6 nM | 7.12 nM | > 16.4 nM | –
CC[C@H](C)[C@@H]([C@@H](CC(=O)N1CCC[C@H]1[C@H](OC)[C@@H](C)C(=O)N[C@@H](Cc1ccccc1)C(=O)O)OC)N(C)C(=O)[C@@H](NC(=O)[C@@]1(C)CCCCN1)C(C)C [#163, N-{(2R,3R)-3-methoxy-3-[(2S)-1-{(3R,4S,5S)-3-methoxy-5-methyl-4-[methyl(N-{[(2R)-2-methylpiperidin-2-yl]carbonyl}-L-valyl)amino]heptanoyl}pyrrolidin-2-yl]-2-methylpropanoyl}-L-phenylalanine] (H-[dαMePip]V[Dil][Dolaproine]F-OH) | 72.7 nM | ≥ 100 nM | 99.4 nM | –
CC[C@H](C)[C@@H]([C@@H](CC(=O)N1CCC[C@H]1[C@H](OC)[C@@H](C)C(=O)N[C@@H](Cc1ccccc1)C(=O)N1CCNCC1)OC)N(C)C(=O)[C@@H](NC(=O)[C@]1(C)CCCN1C)C(C)C [#245] (NMeαMePro-V[Dil][Dolaproine]F-{N(CH2CH2)2NH}) | 33 nM | 11.8 nM | 31.9 nM | –
CC[C@H](C)[C@@H]([C@@H](CC(=O)N1CCC[C@H]1[C@H](OC)[C@@H](C)C(=O)N[C@H](CN)Cc1ccccc1)OC)N(C)C(=O)[C@@H](NC(=O)[C@]1(C)CCCN1C)C(C)C [#246] | 10.8 nM | 3.16 nM | 5.43 nM | –
C#CCNC(=O)[C@H](Cc1ccccc1)NC(=O)[C@H](C)[C@@H](OC)[C@@H]1CCCN1C(=O)C[C@@H](OC)[C@H]([C@@H](C)CC)N(C)C(=O)[C@@H](NC(=O)C(C)(C)NC)C(C)C [#241] (H-[NMeAib]V[Dil][Dolaproine]F-{NH(propargyl)}) | 0.388 nM | 0.364 nM | 0.494 nM | –
CC[C@H](C)[C@@H]([C@@H](CC(=O)N1CCC[C@H]1[C@H](OC)[C@@H](C)C(=S)N[C@@H](Cc1ccccc1)C(=O)O)OC)N(C)C(=O)[C@@H](NC(=O)[C@@H](NC)C(C)C)C(C)C [#41, N-methyl-L-valyl-N-[(3R,4S,5S)-1-{(2S)-2-[(1R,2R)-3-{[(1S)-1-carboxy-2-phenylethyl]amino}-1-methoxy-2-methyl-3-thioxopropyl]pyrrolidin-1-yl}-3-methoxy-5-methyl-1-oxoheptan-4-yl]-N-methyl-L-valinamide] | 33.2 nM | 29.7 nM | 51.8 nM | –
CC[C@H](C)[C@@H]([C@@H](CC(=O)N1CCC[C@H]1[C@H](OC)[C@@H](C)C(=O)NCCc1ccccc1)OC)N(C)C(=O)[C@@H](NC(=O)C(C)(C)N)C(C)C [#56, 2-methylalanyl-N-{(3R,4S,5S)-3-methoxy-1-[(2S)-2-{(1R,2R)-1-methoxy-2-methyl-3-oxo-3-[(2-phenylethyl)amino]propyl}pyrrolidin-1-yl]-5-methyl-1-oxoheptan-4-yl}-N-methyl-L-valinamide] (H-[Aib]V[Dil][Dolaproine]-NHPhenethyl) | 1.26 nM | 0.316 nM | 0.766 nM | –
CC[C@H](C)[C@@H]([C@@H](CC(=O)N1CCC[C@H]1[C@H](OC)[C@@H](C)C(=S)N[C@@H](Cc1ccccc1)c1nccs1)OC)N(C)C(=O)[C@@H](NC(=O)C(C)(C)N)C(C)C [#34, 2-methylalanyl-N-[(3R,4S,5S)-3-methoxy-1-{(2S)-2-[(1R,2R)-1-methoxy-2-methyl-3-{[(1S)-2-phenyl-1-(1,3-thiazol-2-yl)ethyl]amino}-3-thioxopropyl]pyrrolidin-1-yl}-5-methyl-1-oxoheptan-4-yl]-N-methyl-L-valinamide] | 1.95 nM | 0.211 nM | 1.12 nM | –
CC[C@H](C)[C@@H]([C@@H](CC(=O)N1CCC[C@H]1[C@H](OC)[C@@H](C)C(=O)N[C@@H](C(=O)OC)[C@@H]1Cc2ccccc21)OC)N(C)C(=O)[C@@H](NC(=O)C(C)(C)N)C(C)C [#224] (H-[Aib]V[Dil][Dolaproine][X6]-OMe) | 1.56 nM | 0.383 nM | 0.998 nM | –
CC[C@H](C)[C@@H]([C@@H](CC(=O)N1CCC[C@H]1[C@H](OC)[C@@H](C)C(=O)N[C@@H](Cc1ccccc1)C(=O)O)OC)N(C)C(=O)[C@@H](NC(=O)[C@]1(C)CCCN1C)C(C)C [#151, 1,2-dimethyl-L-prolyl-N-{(1S,2R)-4-{(2S)-2-[(1R,2R)-3-{[(1S)-1-carboxy-2-phenylethyl]amino}-1-methoxy-2-methyl-3-oxopropyl]pyrrolidin-1-yl}-2-methoxy-1-[(1S)-1-methylpropyl]-4-oxobutyl}-N-methyl-L-valinamide] (NMeαMePro-V[Dil][Dolaproine]F-OH) | 62 nM | 84.9 nM | 84.6 nM | –
CC[C@H](C)[C@@H]([C@@H](CC(=O)N1CCC[C@H]1[C@H](OC)[C@@H](C)C(=O)N[C@@H](Cc1ccccc1)C(=O)OC)OC)N(C)C(=O)[C@@H](NC(=O)[C@]1(C)CCCCN1)C(C)C (single isomer, unassigned) [#158] | 0.115 nM | 0.082 nM | 0.1 nM | –
CC[C@H](C)[C@@H]([C@@H](CC(=O)N1CCC[C@H]1[C@H](OC)[C@@H](C)C(=O)N[C@@H](Cc1ccccc1)C(=O)OC)OC)N(C)C(=O)[C@@H](NC(=O)C(C)(C)NC)C(C)C [#226] (H-[NMeAib]V[Dil][Dolaproine]F-OMe) | 0.478 nM | 0.118 nM | 0.106 nM | –
CC[C@H](C)[C@@H]([C@@H](CC(=O)N1CCC[C@H]1[C@H](OC)[C@@H](C)C(=O)N[C@@H](Cc1ccccc1)C(=O)OC(C)(C)C)OC)N(C)C(=O)[C@@H](NC(=O)C(C)(C)N)C(C)C [#123, 2-methylalanyl-N-[(3R,4S,5S)-1-{(2S)-2-[(1R,2R)-3-{[(2S)-1-tert-butoxy-1-oxo-3-phenylpropan-2-yl]amino}-1-methoxy-2-methyl-3-oxopropyl]pyrrolidin-1-yl}-3-methoxy-5-methyl-1-oxoheptan-4-yl]-N-methyl-L-valinamide] (H-[Aib]V[Dil][Dolaproine]F-OtBu) | 0.089 nM | 0.125 nM | 0.129 nM | –
